Our source for the IC50 and EC50 values is patent US11976072B2, “Diacylglycerol kinase modulating compounds” (priority 2021, dated 2024).

The structures appear in SMILES notation.

One assay concerns the target human DGKα (Homo sapiens, UniProt P23743). The experiment in a line: DGKα Biochemical Activity Assay (ADP-Glo).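 Further: luminescent detection of ADP produced as DGKα phosphorylates DAG to phosphatidic acid, IC50 from four-parameter nonlinear curve fit.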 To be noted: recombinant DGKα 1 nM, 100 μM ATP, 18:1 DAG/POPS/octylglucoside micelles, 1 hour at 25° C.; geometric mean; read-out: HTBS DGKa 1X ATP KM IC50. In general terms: ADP-Glo turns the ADP formed in a reaction into a luminescent signal.
The test system of assay [1] is Jurkat NFκB-luciferase cells. The experiment in a line: Jurkat NFκB-Luciferase Assay. The class given is cell-based. To be noted: Homo sapiens; Jurkat NFκB-luciferase cells activated with anti-CD3 antibody (OKT3), 2.5 hrs at 37° C.; geometric mean; read-out: DGK NFKb Luciferase EC50. The procedure, abridged: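 Luminescence from One-Glo Ex, read 7 min post-addition, reports NFκB activation in Jurkat luciferase reporter cells. Cells, diluted to 1 million cells/ml in 10% FBS RPMI, were dispensed onto plates holding compound and washed, pre-bound antibody.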

Sequence of human DGKα (P23743 whole entry): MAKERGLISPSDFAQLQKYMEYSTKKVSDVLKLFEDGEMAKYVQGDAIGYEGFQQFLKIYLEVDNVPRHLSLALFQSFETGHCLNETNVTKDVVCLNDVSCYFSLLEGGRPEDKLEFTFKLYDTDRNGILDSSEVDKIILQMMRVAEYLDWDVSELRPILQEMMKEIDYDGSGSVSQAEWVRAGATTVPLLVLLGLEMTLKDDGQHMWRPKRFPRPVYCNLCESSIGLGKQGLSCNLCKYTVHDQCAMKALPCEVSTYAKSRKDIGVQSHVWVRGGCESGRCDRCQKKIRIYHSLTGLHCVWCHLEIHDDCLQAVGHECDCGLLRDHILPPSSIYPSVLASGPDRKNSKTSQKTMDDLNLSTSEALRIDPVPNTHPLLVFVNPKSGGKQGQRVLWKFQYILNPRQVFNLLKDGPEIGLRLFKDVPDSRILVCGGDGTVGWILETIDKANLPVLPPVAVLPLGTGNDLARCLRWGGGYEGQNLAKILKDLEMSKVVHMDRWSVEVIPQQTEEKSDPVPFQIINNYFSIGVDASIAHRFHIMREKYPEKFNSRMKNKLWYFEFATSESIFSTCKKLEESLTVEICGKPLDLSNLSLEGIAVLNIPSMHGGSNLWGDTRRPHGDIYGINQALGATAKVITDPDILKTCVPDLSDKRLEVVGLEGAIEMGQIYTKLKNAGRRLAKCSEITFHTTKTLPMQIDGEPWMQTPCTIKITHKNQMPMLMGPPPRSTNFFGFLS
From the text for human DGKα: Alternatively, the enzymatic activity of human DGKα was monitored in a biochemical assay in the presence or absence of compounds and using micelles containing 18:1 Diacylglycerol (DAG), 16:0-18:1 PS (POPS) and Octylglucoside as substrate. DGKα activity led to conversion of DAG and ATP to Phosphatidic Acid (PA) and ADP. Levels of ADP were monitored by bioluminescence using the ADP-Glo Kinase Assay (Promega) and were indicative of DGKα activity.
Recombinant DGKα (Carna Biosciences) in assay buffer (5 μL in 50 mM MOPS [3-(N-morpholino) propanesulfonic acid], pH 7.2; 0.0025% Triton X-100; 1 mM dithiothreitol; 5 mM MgCl2, 200 μM ATP) was added to the compound-containing plate and was incubated for 15 minutes at 25° C. […] The reaction mixture was incubated at 25° C. for 1 hour. ADP-Glo Reagent (10 μL, 10 mM Mg added) provided by the kit was added to each well and incubated at 25° C. for 40 minutes. Then, 20 μL of Kinase Detection Reagent was added and incubated at 25° C. for 40 minutes. Luciferase activity of each well was measured via luminescence on an Envision plate reader (PerkinElmer).
Least squares curve fittings were performed using a four-parameter variable slope nonlinear regression model. […] IC50 values from multiple experiments were averaged by geometric mean and the standard deviation was calculated.

One may read the IC50 as the concentration that gives 50% inhibition. Usually EC50 stands for the concentration that produces a half-maximal response. `Cc1nnc2nc(N3CCCc4c(C#Cc5ccnn5C)cccc43)c3cc(F)ccc3n12` [Example 223, 7-fluoro-1-methyl-5-[5-[2-(2-methylpyrazol-3-yl)ethynyl]-3,4-dihydro-2H-quinolin-1-yl]-[1,2,4]triazolo[4,3-a]quinazoline]: the IC50 on human DGKα is 40.7 nM. Further, the EC50 in assay [1] turned out to be 9.21 nM.

Turning to `Cc1nnc2nc(N3CCCc4c(C#Cc5ccn[nH]5)cccc43)c3cc(F)ccc3n12` [Example 224, 7-fluoro-1-methyl-5-[5-[2-(1H-pyrazol-5-yl)ethynyl]-3,4-dihydro-2H-quinolin-1-yl]-[1,2,4]triazolo[4,3-a]quinazoline], the IC50 on human DGKα worked out at 15.1 nM. Also, the concentration for a half-maximal effect (EC50) in assay [1] was 8.38 nM.

As for `Cc1nnc2nc(N3CCCc4c(C#Cc5cn[nH]c5)cccc43)c3cc(F)ccc3n12` [Example 225, 7-fluoro-1-methyl-5-[5-[2-(1H-pyrazol-4-yl)ethynyl]-3,4-dihydro-2H-quinolin-1-yl]-[1,2,4]triazolo[4,3-a]quinazoline], the IC50 at human DGKα was determined as 7.46 nM. Also, in assay [1], the EC50 worked out at 8.97 nM.

For the compound `Cc1nnc2nc(N3CCCc4c(C#Cc5cnn(C)c5)cccc43)c3c(F)c(F)ccc3n12` [Example 226, 6,7-difluoro-1-methyl-5-[5-[2-(1-methylpyrazol-4-yl)ethynyl]-3,4-dihydro-2H-quinolin-1-yl]-[1,2,4]triazolo[4,3-a]quinazoline], the IC50 at human DGKα amounted to 3.42 nM. The EC50 in assay [1] was 3.92 nM.

As for `Cc1nnc2nc(N(CC(F)F)c3cc(F)cc(C#Cc4cnn(C)c4)c3)c3c(F)c(F)ccc3n12` [Example 227, N-(2,2-difluoroethyl)-6,7-difluoro-N-[3-fluoro-5-[2-(1-methylpyrazol-4-yl)ethynyl]phenyl]-1-methyl-[1,2,4]triazolo[4,3-a]quinazolin-5-amine], the IC50 at human DGKα amounted to 29.3 nM. Besides, the EC50 in assay [1] worked out at 9.73 nM.

Regarding `COc1ccc(C#Cc2cccc3c2CCCN3c2nc3nnc(C)n3c3ccc(F)cc23)cn1` [Example 228, 7-fluoro-5-[5-[2-(6-methoxy-3-pyridyl)ethynyl]-3,4-dihydro-2H-quinolin-1-yl]-1-methyl-[1,2,4]triazolo[4,3-a]quinazoline], at human DGKα, the IC50 was 17.8 nM. The EC50 in assay [1] is 0.319 nM.

Regarding `Cc1nnc2nc(N3CCCc4c(C#Cc5ccnc(C#N)c5)cccc43)c3cc(F)ccc3n12` [Example 229, 4-[2-[1-(7-fluoro-1-methyl-[1,2,4]triazolo[4,3-a]quinazolin-5-yl)-3,4-dihydro-2H-quinolin-5-yl]ethynyl]pyridine-2-carbonitrile], on human DGKα, the IC50 amounted to 16.7 nM. Further, the EC50 in assay [1] worked out at 1.04 nM.

Take `Cc1nc(C#Cc2cccc3c2CCCN3c2nc3nnc(C)n3c3ccc(F)cc23)cs1` [Example 231, 4-[2-[1-(7-fluoro-1-methyl-[1,2,4]triazolo[4,3-a]quinazolin-5-yl)-3,4-dihydro-2H-quinolin-5-yl]ethynyl]-2-methyl-thiazole]: the IC50 at human DGKα is 7.64 nM. Further, the EC50 in assay [1] came out at 4.06 nM.

For the compound `Cc1nnc2nc(N3CCCc4c(C#Cc5cncn5C)cccc43)c3cc(F)ccc3n12` [Example 232, 7-fluoro-1-methyl-5-[5-[2-(3-methylimidazol-4-yl)ethynyl]-3,4-dihydro-2H-quinolin-1-yl]-[1,2,4]triazolo[4,3-a]quinazoline], the IC50 at human DGKα was determined as 12.4 nM. Also, in assay [1], the EC50 stood at 9.24 nM.

For the compound `Cc1nnc2nc(N3CCCc4c(C#Cc5cnn(C)c5)cccc43)c3c(F)cccc3n12` [Example 233, 6-fluoro-1-methyl-5-[5-[2-(1-methylpyrazol-4-yl)ethynyl]-3,4-dihydro-2H-quinolin-1-yl]-[1,2,4]triazolo[4,3-a]quinazoline], the IC50 on human DGKα is 6.74 nM. Also, the EC50 in assay [1] was found to be 2.15 nM.

As to `Cc1nnc2nc(N3CCCc4c(C#CC5(CO)CC5)cccc43)c3cc(F)ccc3n12` [Example 234, [1-[2-[1-(7-fluoro-1-methyl-[1,2,4]triazolo[4,3-a]quinazolin-5-yl)-3,4-dihydro-2H-quinolin-5-yl]ethynyl]cyclopropyl]methanol], the IC50 at human DGKα amounted to 3.86 nM. In addition, the EC50 in assay [1] turned out to be 23.3 nM.

For the compound `Cc1nnc2nc(N3CCCc4c(C#CC(C)(C)CO)cccc43)c3cc(F)ccc3n12` [Example 235, 4-[1-(7-fluoro-1-methyl-[1,2,4]triazolo[4,3-a]quinazolin-5-yl)-3,4-dihydro-2H-quinolin-5-yl]-2,2-dimethyl-but-3-yn-1-ol], at human DGKα, the IC50 was found to be 6.85 nM. Also, the EC50 in assay [1] was 8.26 nM.

As for `Cc1nnc2nc(N3CCCc4c(C#Cc5cnn(C)c5)cccc43)c3cc(F)ccc3n12` [Example 236, 7-fluoro-1-methyl-5-[5-[2-(1-methylpyrazol-4-yl)ethynyl]-3,4-dihydro-2H-quinolin-1-yl]-[1,2,4]triazolo[4,3-a]quinazoline], the IC50 at human DGKα turned out to be 3.65 nM. In addition, in assay [1], the EC50 was found to be 2.52 nM.

With `Cc1nnc2nc(N(CC(F)F)c3cc(F)cc(C#CC4CC(F)(F)C4)c3)c3c(F)c(F)ccc3n12` [Example 237, N-[3-[2-(3,3-difluorocyclobutyl)ethynyl]-5-fluoro-phenyl]-N-(2,2-difluoroethyl)-6,7-difluoro-1-methyl-[1,2,4]triazolo[4,3-a]quinazolin-5-amine], the IC50 on human DGKα is 8.31 nM. For the same compound, the EC50 in assay [1] came to 1.26 nM.

`Cc1nnc2nc(N(CC(F)F)c3cc(F)cc(C#CC4(O)CCC4)c3)c3c(F)c(F)ccc3n12` [Example 238, 1-[2-[3-[2,2-difluoroethyl-(6,7-difluoro-1-methyl-[1,2,4]triazolo[4,3-a]quinazolin-5-yl)amino]-5-fluoro-phenyl]ethynyl]cyclobutanol]: the IC50 at human DGKα came out at 7.08 nM. Further, in assay [1], the EC50 was determined as 24.5 nM.

In the case of `CCC(O)C#Cc1cc(F)cc(N(CC(F)F)c2nc3nnc(C)n3c3ccc(F)c(F)c23)c1` (stereo not shown) [Example 239, 1-[3-[2,2-difluoroethyl-(6,7-difluoro-1-methyl-[1,2,4]triazolo[4,3-a]quinazolin-5-yl)amino]-5-fluoro-phenyl]pent-1-yn-3-ol], the IC50 on human DGKα turned out to be 24.8 nM. Besides, in assay [1], the EC50 was determined as 31.6 nM.

In the case of `Cc1nnc2nc(N3CCCc4c(C#CC(C)(C)C#N)cccc43)c3c(F)c(F)ccc3n12` [Example 240, 4-[1-(6,7-difluoro-1-methyl-[1,2,4]triazolo[4,3-a]quinazolin-5-yl)-3,4-dihydro-2H-quinolin-5-yl]-2,2-dimethyl-but-3-ynenitrile], at human DGKα, the IC50 was determined as 7.05 nM. Also, in assay [1], the EC50 was 3.41 nM.

For `CCC(C)(O)C#Cc1cc(F)cc(N(CC(F)F)c2nc3nnc(C)n3c3ccc(F)c(F)c23)c1` (stereo not shown) [Example 241, 1-[3-[2,2-difluoroethyl-(6,7-difluoro-1-methyl-[1,2,4]triazolo[4,3-a]quinazolin-5-yl)amino]-5-fluoro-phenyl]-3-methyl-pent-1-yn-3-ol], at human DGKα, the IC50 was 38.6 nM. In assay [1], the EC50 stood at 29.5 nM.

As for `CC(C)(C#N)C#Cc1cccc2c1CCCN2c1nc2nncn2c2ccc(F)c(F)c12` [Example 242, 4-[1-(6,7-difluoro-[1,2,4]triazolo[4,3-a]quinazolin-5-yl)-3,4-dihydro-2H-quinolin-5-yl]-2,2-dimethyl-but-3-ynenitrile], the IC50 at human DGKα is 3.75 nM. Also, the EC50 in assay [1] was found to be 1.94 nM.

In the case of `CC(C)(C#N)C#Cc1cccc2c1CCCN2c1nc2nncn2c2cccc(F)c12` [Example 243, 4-[1-(6-fluoro-[1,2,4]triazolo[4,3-a]quinazolin-5-yl)-3,4-dihydro-2H-quinolin-5-yl]-2,2-dimethyl-but-3-ynenitrile], the IC50 on human DGKα came to 3.14 nM. Further, in assay [1], the EC50 was 2.33 nM.
